Here are results for 3 compounds from publication PMC5978685, “Design, Synthesis, and Evaluation of Novel Immunomodulatory Small Molecules Targeting the CD40–CD154 Costimulatory Protein-Protein Interaction” (Molecules : A Journal of Synthetic Chemistry and Natural …, 2018).

Data set [1] deals with T1, CD40–CD154 (CD40L) (Homo sapiens, UniProt P29965).
T1 construct: purchased Enzo Life Sciences
T1 sequence (P29965 116-261 limits assumed): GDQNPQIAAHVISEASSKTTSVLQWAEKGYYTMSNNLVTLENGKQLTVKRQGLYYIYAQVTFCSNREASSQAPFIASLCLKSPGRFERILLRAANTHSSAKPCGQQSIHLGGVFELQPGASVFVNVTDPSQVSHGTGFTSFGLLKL
The data set can be described thus: cell-free ELISA-type binding inhibition assay, CD40–CD154. The note with it: for selectivity toward CD40–CD154 against all other PPIs tested: vs OX40–OX40L, BAFFR–BAFF, TNF-R1–TNF-α. From the text: As a first assessment, the CD40–CD154 inhibitory activity of compounds 6–19 (Figure 2, Table 1) was quantified using a cell-free in vitro binding inhibition assay as described before. Data fitted with typical sigmoidal concentration dependence curves (log inhibitor versus response model in GraphPad Prism, Hill slope n = 1) are summarized in Figure 3A. […] Polymolecular conglomeration and/or aggregation is often a cause of promiscuous inhibition in screening assays. Therefore, just as in our previous work, we checked for this, and we confirmed for several compounds that inhibition due to aggregation is not the case by retesting inhibitory activity in the presence of a non-ionic detergent (Triton-X 100, 0.01%) as recommended for the detection of such effects.
(§1) Binding inhibition assays were performed in a 96-well cell-free format as described before. Briefly, microtiter plates (Nunc F Maxisorp, 96-well; Thermo Fisher Scientific, Waltham, MA, USA) were coated overnight at 4 °C with 100 μL/well of Fc-conjugated receptors diluted in PBS pH 7.2. This was followed by blocking with 200 μL/well of blocking solution (PBS pH 7.2, 0.05% Tween-20, 1% BSA) for 1 h at RT. Then, plates were washed twice using washing solution (PBS pH 7.4, 0.05% Tween-20) and tapped dry before the addition of the appropriate FLAG tagged ligands along with different concentrations of tested dyes diluted in binding buffer (100 mM HEPES, 0.005% BSA pH 7.2) to give a total volume of 100 μL/well. After 1 h incubation, three washes were conducted, and anti-FLAG HRP conjugate was used to detect the bound FLAG-tagged ligand. Plates were washed four times before the addition of 120 μL/well of HRP substrate TMB (3,3′,5,5′-tetramethylbenzidine) and kept in the dark for up to 15 min. The reaction was stopped using 30 μL of 1M H2SO4, and the absorbance value was read at 450 nm. The concentrations of receptors used were 0.3 μg/mL for CD40, TNF-R1, and BAFFR; 0.6 μg/mL for OX40. The concentrations of the ligands were fixed at 0.02 μg/mL for CD154 and TNF-α, 0.06 μg/mL for OX40L, and 0.03 μg/mL for BAFF. These values were selected following preliminary testing to optimize response (i.e., to produce a high-enough signal at conditions close to half-maximal response, EC50). […] To verify that inhibition is not due to colloidal aggregation, CD40 binding inhibition was also measured in the presence of the non-ionic detergent Triton-X 100 (0.01%), as recommended for the detection of such effects.
(§2) All binding inhibition and cell assays were tested in duplicate or triplicate per plates, and assays were performed as at least three independent experiments. As before, binding and cytotoxicity data were converted to percent inhibition and fitted with standard log inhibitor vs. normalized response models using nonlinear regression in GraphPad Prism (GraphPad, La Jolla, CA, USA) to establish half-maximal (median) inhibitory concentration (IC50) or median lethal concentration (LC50) values. Cell assay data were fitted with a similar model that also allowed for a variable slope using the log inhibitor vs. normalized response (variable slope) model from Prism with a Hill slope (n) shared across all compounds. Cell assays and draining lymph node data were analyzed by one-way repeated-measures analysis of variance (ANOVA) followed by Dunnett’s multiple comparison test as a post hoc test for individual differences using GraphPad Prism and a significance level of p < 0.05 for all comparisons.
(§3) Data are (counterclockwise) for human CD40–CD154 (CD40L) (A); OX40–OX40L (B); BAFFR–BAFF (C); and TNF-R1–TNFα (D) and were fitted with standard binding curves. Data are average ± SD (normalized to percent binding) for n = 3 independent experiments with duplicates for each condition.
Background: ELISA stands for enzyme-linked immunosorbent assay.

The next data set addresses T2, OX40–OX40L (Homo sapiens, UniProt P23510).
T2 construct: purchased Enzo Life Sciences
T2 sequence (P23510 51-183 limits assumed): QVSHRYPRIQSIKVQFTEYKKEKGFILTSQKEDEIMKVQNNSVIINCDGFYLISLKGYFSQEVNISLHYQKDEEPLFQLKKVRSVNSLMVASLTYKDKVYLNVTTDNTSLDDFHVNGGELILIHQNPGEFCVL
Nature of the data set: cell-free ELISA-type binding inhibition assay, OX40–OX40L. The protocol:
(§4) In parallel with the CD40–CD154 assay, the ability of these compounds to inhibit other TNFSFR–TNFSF PPIs, including OX40–OX40L, BAFFR–BAFF, and TNF-R1–TNF-α, was also assessed (Figure 3B–D).
as §1, §2, §3

In the next data set the target is T3, BAFFR–BAFF (Homo sapiens, UniProt Q9Y275).
T3 construct: purchased Enzo Life Sciences
T3 sequence (Q9Y275 134-285 limits assumed): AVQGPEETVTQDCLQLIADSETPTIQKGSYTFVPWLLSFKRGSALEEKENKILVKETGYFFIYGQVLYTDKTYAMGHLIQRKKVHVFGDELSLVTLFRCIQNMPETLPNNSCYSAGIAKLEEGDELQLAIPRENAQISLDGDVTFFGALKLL
The data set can be described thus: cell-free ELISA-type binding inhibition assay, BAFFR–BAFF. The protocol: as §4, §1, §2, §3

The target in the next data set is T4, TNF-R1–TNFα (Homo sapiens, UniProt P01375).
T4 construct: purchased Enzo Life Sciences
T4 sequence (P01375 85-233 limits assumed): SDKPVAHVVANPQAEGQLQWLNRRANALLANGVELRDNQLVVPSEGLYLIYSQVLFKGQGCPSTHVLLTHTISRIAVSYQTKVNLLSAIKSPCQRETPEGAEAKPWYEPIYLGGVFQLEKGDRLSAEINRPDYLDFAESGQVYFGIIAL
Nature of the data set: cell-free ELISA-type binding inhibition assay, TNF-R1–TNFα. Particulars: cell-free TNF-R1–TNFα binding inhibition; read-out: TNF IC50. The protocol:
as §4, §1, §2, §3

The target of a further data set is T5, CD154 (CD40L) (Homo sapiens, UniProt P29965).
T5 construct: purchased Peprotech
T5 sequence (P29965 113-261 limits assumed): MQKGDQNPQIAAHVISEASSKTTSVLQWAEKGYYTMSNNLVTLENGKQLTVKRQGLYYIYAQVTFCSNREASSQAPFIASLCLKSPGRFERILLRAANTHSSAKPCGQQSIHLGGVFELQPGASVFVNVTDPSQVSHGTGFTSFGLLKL
The data set can be described thus: protein thermal shift (differential scanning fluorimetry), CD154. Particulars: 25 μM of 11, 10 μM of DRI-C21045; CD154 0.05 mg/mL. The data set is classed as binding. From the text:
(§5) A protein thermal shift assay (differential scanning fluorimetry, also known as ThermoFluor assay) was used to establish whether our small-molecule probes bind to CD40 or CD154 (CD40L). This technique quantifies the shift in protein stability due to ligand binding via use of a dye whose fluorescence increases when exposed to hydrophobic surfaces, which happens as the protein unfolds exposing its normally buried hydrophobic core residues. […]
(§6) This assay was used following standard protocols as described in the literature to establish whether CD154 or CD40 is the binding partner of our compounds. Sypro orange (ThermoFisher; Waltham, MA, USA) was used as the fluorescence detection dye with an RT-PCR machine (StepOnePlus, Applied Biosystems (Foster City, CA, USA); detection on ROX channel, 575/602 nm) programmed to equilibrate samples at 25 °C for 90 s and then increase temperature to 99 °C by 0.4 °C every 24 s before taking a reading. Melting point of the protein is considered the lowest point of the first derivative plot, as calculated by the software included with the RT-PCR machine. Optimal concentrations were determined by performing a series of preliminary scans at various concentrations of protein, compound, and dye (CD154 0.05 mg/mL, CD40-Fc 0.1 mg/mL, Sypro orange 4×, 100 mM HEPES buffer, 10 μM of DRI-C21045 and 25 μM of 11). […]

The next data set deals with T6, CD40 (Homo sapiens, UniProt P25942).
T6 construct: purchased Enzo Life Sciences
T6 sequence (P25942 21-277): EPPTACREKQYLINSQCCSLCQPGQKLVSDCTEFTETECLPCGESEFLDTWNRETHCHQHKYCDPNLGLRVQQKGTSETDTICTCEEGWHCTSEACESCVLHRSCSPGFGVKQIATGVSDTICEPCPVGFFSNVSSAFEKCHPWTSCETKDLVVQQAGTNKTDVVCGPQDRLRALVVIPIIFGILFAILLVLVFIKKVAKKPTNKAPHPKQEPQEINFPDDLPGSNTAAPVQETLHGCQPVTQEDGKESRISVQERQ
The data set can be described thus: protein thermal shift (differential scanning fluorimetry), CD40. The data set is classed as binding. Particulars: 25 μM of 11, 10 μM of DRI-C21045; CD40-Fc 0.1 mg/mL.
Description: as §5, §6
On the technique in general: DSF heats the sample and reads unfolding from a dye or from intrinsic fluorescence.

Data set [2] deals with CD154-induced NF-κB activation in CD40 sensor cells. Nature of the data set: CD40 sensor cell assay (HEK Blue CD40, SEAP reporter). In kind it is cell-based, human.
Description: (§7) As further confirmation of the inhibitory activity of our compounds, a cell-based assay was used with sensor cells (HEK Blue CD40) containing a secreted embryonic alkaline phosphatase (SEAP) reporter gene under the control of a promoter fused to a NF-κB binding site and transfected with CD40. […] For all tested compounds, the corresponding IC50 values are higher than those determined in the cell-free binding inhibition assay (Table 1) representing a loss of activity which is likely due to non-specific binding on account of the presence of proteins and cells in the assay, as well as hydrophobicity-related problems. Cytotoxicities were also evaluated in these same cells and at the same concentrations using a standard MTS assay to ensure that effects are present at non-toxic concentration levels.
CD40 expressing NF-κB sensor cells (HEK Blue, InvivoGen, San Diego, CA, USA) were used to assess the ability of the present compounds to block CD154-induced activation as described before. Briefly, cells were maintained in DMEM at 80% confluence for each experiment. Cells were trypsinized and re-suspended in the same medium without FBS and seeded on 96-well microtiter plates at a density of 50,000 cells/well in the absence and presence of various concentrations of compounds diluted in the same media. For ligand mediated stimulation, a concentration of recombinant human CD154 (100 ng/mL) found to induce an optimal response was maintained in the wells for this purpose. After 24 h of incubation at 37 °C, 40 μL supernatant of each well were taken and added to another 96-well microtiter plate containing 160 μL/well of QUANTI-Blue (InvivoGen). The level of SEAP was determined after 1 h of incubation at 37 °C by reading at 650 nm using a spectrophotometer. A monoclonal anti-human CD154 antibody (clone 40804, R&D Systems, Minneapolis, MN, USA) was used as a positive control at 240 nM concentration.
as §2
Figure 5 Inhibition of CD154-induced NF-κB activation in CD40 sensor cells by compounds 6, 14, 15, and 18 in a concentration-dependent manner. Tartrazine (TZ) and an anti-CD154 antibody (mAb; single dose, 240 nM) were included as negative and positive controls, respectively. Data are average ± SD (normalized to CD154-activated cells alone) for n = 2 independent experiments with duplicates for each condition.

The nature of data set [3]: MTS cytotoxicity assay in HEK Blue cells. The data set is classed as cell-based. The note with it: human, HEK Blue CD40 sensor cells; HEK Blue cells, 24 h; read-out: LC50 (cytotoxicity, MTS).
Description: as §7
(§8) For the MTS assay, HEK Blue cells were cultured and prepared in the same manner as in the CD40 sensor assay. Then cells were added to a 96-well microtiter plate at a density of 50,000 cells/well in the absence or presence of various concentrations of compounds diluted in the same media, without the addition of CD154. The plate was incubated at 37 °C for 24 h. 20 µL per well of MTS, 3-(4,5-dimethylthiazol-2-yl)-5-(3-carboxymethoxyphenyl)-2-(4-sulfophenyl)-2H-tetrazolium, (Promega, Madison, WI, USA) was added to the culture after treatments, and cells were incubated at 37 °C for 4 h. Formazan levels were measured using a plate reader at 490 nm.
as §2

The next data set relates to HEK Blue cells. The data set can be described thus: MTS cytotoxicity assay in HEK Blue cells. The data set is classed as cell-based. Particulars: LC50 (MTS) / NF-κB IC50 in sensor cells.
Description: as §7, §8, §2
(Tetrazolium dyes change colour on reduction, which living cells bring about.)

Data set [4] in a line: solubilization in the in vivo dosing vehicle. The data set is classed as physicochemical. Particulars: vehicle 20% HPβCD.
In data set [5] the target is T1, CD40–CD154 (CD40L). Also on record: method as in PMID 29024591. Particulars: read-out: CD40–CD154 IC50 (previous work); cited from earlier work.
Setting [6] is: cell-free CD40–CD154 binding inhibition, read-out: CD40 IC50.

pIC50: −log10 of the molar value. Read-outs that look alike come from different tables or passages of the source. Bounds are passed on as bounds.

One may read the pIC50 as the negative decadic logarithm of the IC50, by convention in mol/L.

In the case of `COC(=O)c1ccc(C(=O)Nc2ccc(-c3ccc(C(=O)Nc4ccc(S(=O)(=O)O)c5cccc(S(=O)(=O)O)c45)cc3)cc2)cc1` [Compound 11, 4-(4′-(4-(Methoxycarbonyl)benzamido)-[1,1′-biphenyl]-4-carboxamido)naphthalene-1,5-disulfonic acid], the pIC50 at CD40–CD154 (CD40L) [1] (setting [6]) was 4.22; at CD40–CD154 (CD40L) [1] (cell-free binding inhibition assay, read-out: CD40–CD154 IC50) it was 4.22; at OX40–OX40L, 3.92; on BAFFR–BAFF it was 3.27; at TNF-R1–TNFα, 3.34. For the same compound, at CD154 (CD40L), the “shift in melting temperature (Tm) of CD154” value is “caused clear shifts”. The “shift in melting temperature (Tm) of CD40” value at CD40 is “not for CD40”.

On to `O=C(Nc1ccc(-c2ccc(C(=O)Nc3cccc4cccc(S(=O)(=O)O)c34)cc2)cc1)c1ccc(-c2ccc([N+](=O)[O-])cc2)cc1` [Compound 14, 8-(4′-(4′-Nitro-[1,1′-biphenyl]-4-carboxamido)-[1,1′-biphenyl]-4-carboxamido)naphthalene-1-sulfonic acid], for which the pIC50 at CD40–CD154 (CD40L) [1] (setting [6]) is 7.70; on OX40–OX40L, 5.16; on BAFFR–BAFF it was 6.11; at TNF-R1–TNFα, 4.15; in [2] (Homo sapiens, CD154 100 ng/mL, 24 h), 4.95. In addition, the figures for the “selectivity toward CD40–CD154 against all other PPIs tested” value at CD40–CD154 (CD40L) [1] and at CD40–CD154 (CD40L) [1] (listed as DRI-C21091) were over 30 fold and “more than thirty-fold”, respectively. Also, the “inhibition of CD154-induced NF-κB activation (qualitative)” value in data set [2] was “concentration-dependent inhibition”. Further, the CC50 at 24 h in data set [3] stood at 55.6 µM. Moreover, in the data set with HEK Blue cells, the “therapeutic index, TI = LC50/IC50” value was determined as 5. Moreover, in data set [4], the “solubility in the vehicle for in vivo dosing” value is given as “could not be sufficiently solubilized in the vehicle”.

Regarding `COC(=O)c1ccc(C(=O)Nc2ccc(-c3ccc(C(=O)Nc4cccc5cccc(S(=O)(=O)O)c45)cc3)cc2)cc1` [DRI-C21045, reference compound], the “shift in melting temperature (Tm) of CD154” value at CD154 (CD40L) is recorded as “caused clear shifts”. At CD40, the “shift in melting temperature (Tm) of CD40” value is “not for CD40”. Besides, the pIC50 at CD40–CD154 (CD40L) [5] was 6.77.
